Reference: US8921082B2, “Method for producing xylitol from lignocellulosic hydrolysates without detoxification” (priority 2009, dated 2014)

Test system: Candida sp. strain
Assay: Tolerance of the strain Candida sp. to furfural (xylose fermentation with furfural added)
Type: cell-based
Description: The fermentation medium contained 97 g/L sterilized synthetic xylose solution with furfural in a concentration range of 1-3 g/L added. The fermentation temperature is controlled at 30° C., the agitation of the incubator is maintained at 150 rpm, and the ratio of the inocula size of the culture and the volume of the fermentation medium is 1:6 (v/v).

## O=Cc1ccco1 [furfural]
97 g/L synthetic xylose solution, furfural 1-3 g/L added, 30° C., 150 rpm
  tolerance of the strain to furfural: higher than 3 g/L
Furfural 1-3 g/L in 97 g/L synthetic xylose solution
  xylitol yield: higher than 0.7 g/g
Furfural 3 g/L, 97 g/L synthetic xylose solution, compared with no furfural
  xylose fermentation capacity of the strain: the same as that without furfural
